Data reported in PMC11040665, “Aminothiazolone Inhibitors Disrupt the Protein–RNA Interaction of METTL16 and Modulate the m^6A RNA Modification” (JACS Au, 2024).
Entries after “also recorded” stand apart in the source; their conditions may differ.

Tests used:
[1] = molecular target: T1, METTL16–MAT2A-hp1 mRNA interaction (METTL16 MTD 1–291, FAM-labeled MAT2A-hp1 RNA) (Homo sapiens, UniProt Q86W50); assay: Fluorescence polarization (FP) assay, disruption of METTL16 binding to FAM-MAT2A-hp1 RNA
T1 sequence (Q86W50 1-291): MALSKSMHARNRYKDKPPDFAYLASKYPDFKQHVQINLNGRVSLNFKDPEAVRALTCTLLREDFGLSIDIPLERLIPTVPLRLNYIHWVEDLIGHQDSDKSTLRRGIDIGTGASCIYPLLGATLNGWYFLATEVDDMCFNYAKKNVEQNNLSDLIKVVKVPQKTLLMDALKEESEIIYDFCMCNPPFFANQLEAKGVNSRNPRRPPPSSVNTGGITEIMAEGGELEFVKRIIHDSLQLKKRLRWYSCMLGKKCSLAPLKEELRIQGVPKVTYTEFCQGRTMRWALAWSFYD
Description: The binding of METTL16 to the FAM-labeled RNA probe formed a complex that led to a higher FP signal in comparison to that of the unbound RNA probe (Figure 2A). […] The Z-factor of 0.91 indicated the suitability of the assay condition (Figure S2D). […] In both FP assay and EMSA, a final concentration of 50 nM METTL16 and 5 nM FAM-MAT2A-hp was used. The METTL16 MTD (amino acids 1–291) was used in this study unless specifically indicated otherwise.
The FP assay was performed using 384-well black plates (Corning #4514) in a total reaction volume of 20 μL, with the final concentration of protein and RNA being 50 and 5 nM respectively. Compounds were diluted in FP buffer and incubated with protein for 30 min at room temperature, then FAM-MAT2A-hp1 RNA probe was added and the fluorescence polarization was measured using a TECAN Spark plate reader, under the excitation wavelength of 485 nm and the emission wavelength of 535 nm with bandwidth of 20 nm. 1% DMSO was used as the control. The inhibition was calculated with the equation: inhibition = 100%(Control – X)/(Control – Blank); Control: DMSO with protein and FAM-RNA; Blank: DMSO with FAM-RNA; X: compound with protein and FAM-RNA. The IC50 value was further determined using GraphPad Prism 9. […] The polarization was measured under an excitation wavelength of 630 nm and an emission wavelength of 680 nm with a bandwidth of 20 nm.

[2] = molecular target: T2, METTL16 MTD–MAT2A-hp1 RNA interaction (Homo sapiens, UniProt Q86W50); assay: Electrophoretic mobility shift assay (EMSA) with FAM-MAT2A-hp1 RNA; details: 50 nM METTL16, 5 nM FAM-MAT2A-hp1
T2 sequence (Q86W50 1-291): T1 sequence (Q86W50 1-291)
Description: METTL16 MTD protein (1–291) was incubated with the indicated compound or DMSO in a buffer containing 20 mM HEPES, pH 7.5, 50 mM NaCl, 0.05% v/v Tween 20, and 0.05 mg/mL BGG at room temperature for 30 min; subsequently, FAM-MAT2A-hp1 RNA probe was added and incubated at room temperature for 10 min, the final of protein and RNA are 50 and 5 nM respectively, and 1% DMSO was used as the control. […] The gel was detected and imaged by Chemi Doc MP (Bio-Rad).

[3] = molecular target: T3, METTL16 MTD–U6 snRNA Δ interaction (Homo sapiens, UniProt Q86W50); assay: FP assay with Cy5-labeled U6 snRNA Δ; type: binding
T3 construct: METTL16 MTD (1–291) was subcloned to pOPINB plasmid; His tag followed by HRV 3C cleavage site (N, cleaved yes); made in house; host or cells: E. coli Rosetta (DE3)
T3 sequence (Q86W50 1-291): T1 sequence (Q86W50 1-291)

[4] = molecular target: T4, methyltransferase activity of METTL16 MTD toward MAT2A-hp1 (Homo sapiens, UniProt Q86W50); assay: In vitro methylation assay (MTase Glo); type: biochemical; details: RNA substrate MAT2A-hp1
T4 construct: METTL16 MTD (1–291) was subcloned to pOPINB plasmid; His tag followed by HRV 3C cleavage site (N, cleaved yes); made in house; host or cells: E. coli Rosetta (DE3)
T4 sequence (Q86W50 1-291): T1 sequence (Q86W50 1-291)
Description: Next, we evaluated the inhibition of the METTL16 methylation using the MTase Glo assay kit (Promega) measuring the methyltransferase activity based on the formation of the methylation product S-adenosyl homocysteine, which was converted to ADP by the MTase-Glo reagent to trigger a subsequent luciferase reaction (Figure 5E).
The methyltransferase activity of METTL16 MTD was measured using an MTase Glo kit (Promega V7601) following the manufacturer’s instructions. The reaction was carried out in white 384-well plates (Corning #3824), with a total methyltransferase reaction volume of 8 μL, and the final concentrations of METTL16 MTD, MAT2A-hp1, and SAM were 1, 1, and 10 μM, respectively, and 1% of DMSO was used as a control. […] To use SAM at a different final concentration, the concentration of SAM was adjusted accordingly in a 2× substrate solution.

[5] = molecular target: T5, METTL16 MTD–GGACU-containing RNA interaction (Homo sapiens, UniProt Q86W50); assay: EMSA with GGACU-containing RNA; details: 5 nM RNA, 600 nM METTL16 MTD
T5 sequence (Q86W50 1-291): T1 sequence (Q86W50 1-291)
Description: METTL16 MTD protein (1–291) was incubated with the indicated compound or DMSO in a buffer containing 20 mM HEPES, pH 7.5, 50 mM NaCl, 0.05% v/v Tween 20, and 0.05 mg/mL BGG at room temperature for 30 min; subsequently, FAM-MAT2A-hp1 RNA probe was added and incubated at room temperature for 10 min, the final of protein and RNA are 50 and 5 nM respectively, and 1% DMSO was used as the control. […] The gel was detected and imaged by Chemi Doc MP (Bio-Rad). […] EMSA for testing compounds with GGAUC-motif containing RNA and METTL16 MTD interaction was performed using the method described above, expecting that the final of METTL16 MTD protein and FAM-labeled-GGACU RNA are 600 nM and 5 nM respectively. EMSA for RNA binding: indicated concentrations of fluorophore-labeled RNA were incubated with indicated concentrations of protein in EMSA buffer for 15 min at room temperature, then loaded to native PAGE gels and imaged with the method described above.

[6] = system: MDA-MB-231 cells; assay: Colony formation assay; type: cell-based, human; details: 7 days, three tested concentrations
Description: MDA-MB-231 cells were collected and seeded with the density of 1000 cells per well into 24-well plates; after being cultured overnight, the medium was exchanged and treated with indicated compounds or DMSO (0.5%) as the control. The medium change and treatment were performed every 3 days. After 7 days, the cell culture medium was discarded, and cells were washed with PBS and fixed with 4% paraformaldehyde solution at room temperature for 15 min; the paraformaldehyde solution was removed, and cells were washed with PBS again to remove the paraformaldehyde. Then cells were stained with 0.1% (w/v) crystal violet. After staining for 15 min, the cells were washed with H2O to remove the extra dye and then photographed.

[7] = system: MDA-MB-231 cells; assay: Cell viability, MDA-MB-231; type: cell-based, human
[8] = molecular target: T6, METTL16 MTD (methyltransferase domain) (Homo sapiens, UniProt Q86W50 1-291); assay: competition FP; vs FAM-MAT2A-hp1; more potent than GGACU-RNA and pre-miR-17-hp bp; 20 mM HEPES pH 7.5, 50 mM NaCl, 0.05% Tween 20, 0.05 mg/mL BGG, room temperature; EMSA 6.6% native PAGE 0.5x TBE at 4 C; details: protein: recombinant, tags: N-terminal His tag removed by HRV 3C (His-tagged form also purified)
T6 sequence: T1 sequence (Q86W50 1-291)

[9] = molecular target: T6, METTL16 MTD (methyltransferase domain); assay: competition FP; vs FAM-MAT2A-hp1; 20 mM HEPES pH 7.5, 50 mM NaCl, 0.05% Tween 20, 0.05 mg/mL BGG, room temperature; EMSA 6.6% native PAGE 0.5x TBE at 4 C; details: protein: recombinant; tags: N-terminal His tag removed by HRV 3C (His-tagged form also purified)

Molecule: COc1ccc(S(=O)(=O)NC2=NC(=O)C(=C3C(=O)Nc4ccc(Cl)cc43)S2)cc1 [Compound 1]
- IC50 [1]: 16.3 µM
- disruption of METTL16–MAT2A-hp1 RNA binding in EMSA, in words [2]: dose-dependent inhibition

Molecule: O=C1N=C(NS(=O)(=O)c2ccc(C(=O)O)cc2)SC1=C1C(=O)Nc2ccc(Cl)cc21 [Compound 27]
- IC50 [3]: 6.6 µM
- inhibition of the methyltransferase activity of METTL16 MTD, in words [4]: dose-dependently inhibited; also recorded: potent inhibitory activity
- inhibition of METTL16–GGACU RNA binding in EMSA, in words [5]: dose-dependently inhibited
- inhibition on colony formation, in words [6]: mild inhibitory activity against colony formation
- effect on cell viability, in words [7]: mild antiviability effect
- IC50 [1]: 2.7 µM

B1: pre-miR-21-hp (structured_RNA)
RNA: GGGUUGACUGUUGAAUCUCAUGGCAACCC
- binding result ([8]; hairpin): binds

B2: GGACU-RNA (unlabeled) (ssRNA)
RNA: UUCUUCUGUGGACUGUG
- IC50 [9]: 0.814 µM

B3: pre-miR-17-hp (structured_RNA)
RNA: GUGCAGGUAGUGAUAUGUGCAUCUACUGCAC
- binding result ([8]; hairpin with two bulges): binds
